From ChEMBL document CHEMBL4304773, “Nitroimidazole-containing compounds and their antibacterial and antitubercular activities” (2019)
≈ marks a conversion by molar mass, not a printed value.

Legend:
Type in all cases: functional
Escherichia coli [1] = assay: Antibacterial activity against Escherichia coli infected in mouse
Staphylococcus aureus [2] = assay: Antibacterial activity against Staphylococcus aureus
Streptococcus pyogenes = assay: Antibacterial activity against Streptococcus pyogenes
Staphylococcus aureus [3] = assay: Antibacterial activity against Staphylococcus aureus ATCC 25923 after 24 hrs by NCCLS method; details: ATCC 25923, 24 h
Bacillus subtilis = assay: Antibacterial activity against Bacillus subtilis ATCC 530 after 24 hrs by NCCLS method; details: ATCC 530, 24 h
Escherichia coli [4] = assay: Antibacterial activity against Escherichia coli ATCC 25922 after 24 hrs by NCCLS method; details: ATCC 25922, 24 h
Pseudomonas aeruginosa [5] = assay: Antibacterial activity against Pseudomonas aeruginosa ATCC 27853 after 24 hrs by NCCLS method; details: ATCC 27853, 24 h
Escherichia coli [6] = assay: Antibacterial activity against Escherichia coli
Pseudomonas aeruginosa [7] = assay: Antibacterial activity against Pseudomonas aeruginosa
Enterococcus faecalis = assay: Antibacterial activity against Enterococcus faecalis
Staphylococcus aureus [8] = assay: Antibacterial activity against Staphylococcus aureus ATCC 25923
Staphylococcus aureus [9] = assay: Antibacterial activity against Staphylococcus aureus ATCC 29213
Staphylococcus aureus [10] = assay: Antibacterial activity against methicillin-resistant Staphylococcus aureus N315
Pseudomonas aeruginosa [11] = assay: Antibacterial activity against Pseudomonas aeruginosa ATCC 27853
Acinetobacter baumannii = assay: Antibacterial activity against Acinetobacter baumannii
Escherichia coli [12] = assay: Antibacterial activity against Escherichia coli ATCC 25922
Klebsiella pneumoniae = assay: Antibacterial activity against Klebsiella pneumoniae
Helicobacter pylori [13] = assay: Antibacterial activity against Helicobacter pylori NCTC 11637
Helicobacter pylori [14] = assay: Antibacterial activity against Helicobacter pylori

## CCn1cc(C(=O)OC)c(=O)c2cc(F)c(N3CCN(CCn4c([N+](=O)[O-])cnc4C)CC3)nc21
Escherichia coli [1]
  ED50: 3.5 to 13.2 mg/kg

## Cc1nc([N+](=O)[O-])cn1Cc1nn(CNc2ccccc2)c(=S)o1
Staphylococcus aureus [2]
  MIC: 184 to 2890 µM (≈ 63.7 to 1000 µg/mL)
Streptococcus pyogenes
  MIC: 184 to 2890 µM (≈ 63.7 to 1000 µg/mL)

## Cc1nc([N+](=O)[O-])cn1Cc1nn(CN2CCN(C)CC2)c(=S)o1
Staphylococcus aureus [2]
  MIC: 184 to 2890 µM (≈ 65 to 1020 µg/mL)
Streptococcus pyogenes
  MIC: 184 to 2890 µM (≈ 65 to 1020 µg/mL)

## Cc1ccc(Oc2c(/C=N/NC(=O)Cn3c([N+](=O)[O-])cnc3C)c(C)nn2-c2ccc(C)cc2)cc1
Staphylococcus aureus [3]
  MIC: 3.12 to 50 µg/mL (≈ 6.4 to 103 µM)
Bacillus subtilis
  MIC: 3.12 to 50 µg/mL (≈ 6.4 to 103 µM)
Escherichia coli [4]
  MIC: 3.12 to 50 µg/mL (≈ 6.4 to 103 µM)
Pseudomonas aeruginosa [5]
  MIC: 3.12 to 50 µg/mL (≈ 6.4 to 103 µM)

## CCOC(=O)c1cn(C2CC2)c2cc(N3CCN(CCn4c([N+](=O)[O-])cnc4C)CC3)c(F)cc2c1=O
Escherichia coli [1]
  ED50: 3.5 to 13.2 mg/kg

## C#CCN1CCN(c2ccc3c4c(cccc24)C(=O)N(CC(O)Cn2c([N+](=O)[O-])cnc2C)C3=O)CC1 (stereo not drawn)
Escherichia coli [6]
  MIC: 13 to 1020 µM (≈ 6.53 to 513 µg/mL)
Pseudomonas aeruginosa [7]
  MIC: 13 to 1020 µM (≈ 6.53 to 513 µg/mL)
Enterococcus faecalis
  MIC: 13 to 1020 µM (≈ 6.53 to 513 µg/mL)
Staphylococcus aureus [8]
  MIC: 13 to 1020 µM (≈ 6.53 to 513 µg/mL)
Staphylococcus aureus [9]
  MIC: 13 to 1020 µM (≈ 6.53 to 513 µg/mL)
Staphylococcus aureus [10]
  MIC: 13 to 1020 µM (≈ 6.53 to 513 µg/mL)
Pseudomonas aeruginosa [11]
  MIC: 13 to 1020 µM (≈ 6.53 to 513 µg/mL)
Acinetobacter baumannii
  MIC: 13 to 1020 µM (≈ 6.53 to 513 µg/mL)
Escherichia coli [12]
  MIC: 13 to 1020 µM (≈ 6.53 to 513 µg/mL)
Klebsiella pneumoniae
  MIC: 13 to 1020 µM (≈ 6.53 to 513 µg/mL)

## CCn1cc(C(=O)O)c(=O)c2cc(F)c(N3CCN(CCn4c([N+](=O)[O-])cnc4C)CC3)nc21
Escherichia coli [1]
  ED50: 3.5 to 13.2 mg/kg

## COc1ccc(Oc2c(/C=N/NC(=O)Cn3c([N+](=O)[O-])cnc3C)c(C)nn2-c2ccccc2)cc1
Staphylococcus aureus [3]
  MIC: 3.12 to 50 µg/mL (≈ 6.37 to 102 µM)
Bacillus subtilis
  MIC: 3.12 to 50 µg/mL (≈ 6.37 to 102 µM)
Escherichia coli [4]
  MIC: 3.12 to 50 µg/mL (≈ 6.37 to 102 µM)
Pseudomonas aeruginosa [5]
  MIC: 3.12 to 50 µg/mL (≈ 6.37 to 102 µM)

## Cc1ccc(-n2nc(C)c(/C=N/NC(=O)Cn3c([N+](=O)[O-])cnc3C)c2Oc2ccc(F)cc2)cc1
Staphylococcus aureus [3]
  MIC: 3.12 to 50 µg/mL (≈ 6.35 to 102 µM)
Bacillus subtilis
  MIC: 3.12 to 50 µg/mL (≈ 6.35 to 102 µM)
Escherichia coli [4]
  MIC: 3.12 to 50 µg/mL (≈ 6.35 to 102 µM)
Pseudomonas aeruginosa [5]
  MIC: 3.12 to 50 µg/mL (≈ 6.35 to 102 µM)

## CCCCCCN1CCN(c2ccc3c4c(cccc24)C(=O)N(CC(O)Cn2c([N+](=O)[O-])cnc2C)C3=O)CC1 (stereo not drawn)
Escherichia coli [6]
  MIC: 13 to 1020 µM (≈ 7.13 to 560 µg/mL)
Pseudomonas aeruginosa [7]
  MIC: 13 to 1020 µM (≈ 7.13 to 560 µg/mL)
Enterococcus faecalis
  MIC: 13 to 1020 µM (≈ 7.13 to 560 µg/mL)
Staphylococcus aureus [8]
  MIC: 13 to 1020 µM (≈ 7.13 to 560 µg/mL)
Staphylococcus aureus [9]
  MIC: 13 to 1020 µM (≈ 7.13 to 560 µg/mL)
Staphylococcus aureus [10]
  MIC: 13 to 1020 µM (≈ 7.13 to 560 µg/mL)
Pseudomonas aeruginosa [11]
  MIC: 13 to 1020 µM (≈ 7.13 to 560 µg/mL)
Acinetobacter baumannii
  MIC: 13 to 1020 µM (≈ 7.13 to 560 µg/mL)
Escherichia coli [12]
  MIC: 13 to 1020 µM (≈ 7.13 to 560 µg/mL)
Klebsiella pneumoniae
  MIC: 13 to 1020 µM (≈ 7.13 to 560 µg/mL)

## CCCCCCCCN1CCN(c2ccc3c4c(cccc24)C(=O)N(CC(O)Cn2c([N+](=O)[O-])cnc2C)C3=O)CC1 (stereo not drawn)
Escherichia coli [6]
  MIC: 13 to 1020 µM (≈ 7.5 to 588 µg/mL)
Pseudomonas aeruginosa [7]
  MIC: 13 to 1020 µM (≈ 7.5 to 588 µg/mL)
Enterococcus faecalis
  MIC: 13 to 1020 µM (≈ 7.5 to 588 µg/mL)
Staphylococcus aureus [8]
  MIC: 13 to 1020 µM (≈ 7.5 to 588 µg/mL)
Staphylococcus aureus [9]
  MIC: 13 to 1020 µM (≈ 7.5 to 588 µg/mL)
Staphylococcus aureus [10]
  MIC: 13 to 1020 µM (≈ 7.5 to 588 µg/mL)
Pseudomonas aeruginosa [11]
  MIC: 13 to 1020 µM (≈ 7.5 to 588 µg/mL)
Acinetobacter baumannii
  MIC: 13 to 1020 µM (≈ 7.5 to 588 µg/mL)
Escherichia coli [12]
  MIC: 13 to 1020 µM (≈ 7.5 to 588 µg/mL)
Klebsiella pneumoniae
  MIC: 13 to 1020 µM (≈ 7.5 to 588 µg/mL)

## CCCCCCCCCCCCN1CCN(c2ccc3c4c(cccc24)C(=O)N(CC(O)Cn2c([N+](=O)[O-])cnc2C)C3=O)CC1 (stereo not drawn)
Escherichia coli [6]
  MIC: 13 to 1020 µM (≈ 8.23 to 645 µg/mL)
Pseudomonas aeruginosa [7]
  MIC: 13 to 1020 µM (≈ 8.23 to 645 µg/mL)
Enterococcus faecalis
  MIC: 13 to 1020 µM (≈ 8.23 to 645 µg/mL)
Staphylococcus aureus [8]
  MIC: 13 to 1020 µM (≈ 8.23 to 645 µg/mL)
Staphylococcus aureus [9]
  MIC: 13 to 1020 µM (≈ 8.23 to 645 µg/mL)
Staphylococcus aureus [10]
  MIC: 13 to 1020 µM (≈ 8.23 to 645 µg/mL)
Pseudomonas aeruginosa [11]
  MIC: 13 to 1020 µM (≈ 8.23 to 645 µg/mL)
Acinetobacter baumannii
  MIC: 13 to 1020 µM (≈ 8.23 to 645 µg/mL)
Escherichia coli [12]
  MIC: 13 to 1020 µM (≈ 8.23 to 645 µg/mL)
Klebsiella pneumoniae
  MIC: 13 to 1020 µM (≈ 8.23 to 645 µg/mL)

## Cc1ncc([N+](=O)[O-])n1CCN1CCN(c2cc3c(cc2F)c(=O)c(C(=O)O)cn3C2CC2)CC1
Escherichia coli [1]
  ED50: 2.56 to 3.88 mg/kg

## Cc1nn(-c2ccccc2)c(Oc2ccc(Cl)cc2)c1/C=N/NC(=O)Cn1c([N+](=O)[O-])cnc1C
Staphylococcus aureus [3]
  MIC: 3.12 to 50 µg/mL (≈ 6.32 to 101 µM)
Bacillus subtilis
  MIC: 3.12 to 50 µg/mL (≈ 6.32 to 101 µM)
Escherichia coli [4]
  MIC: 3.12 to 50 µg/mL (≈ 6.32 to 101 µM)
Pseudomonas aeruginosa [5]
  MIC: 3.12 to 50 µg/mL (≈ 6.32 to 101 µM)

## CCc1ccc(NCn2nc(Cn3cc([N+](=O)[O-])nc3C)oc2=S)cc1
Staphylococcus aureus [2]
  MIC: 184 to 2890 µM (≈ 68.9 to 1080 µg/mL)
Streptococcus pyogenes
  MIC: 184 to 2890 µM (≈ 68.9 to 1080 µg/mL)

## Cc1ncc([N+](=O)[O-])n1CCNCc1no[n+]([O-])c1C(N)=O
Helicobacter pylori [13]
  MIC90: 0.5 to 32 µg/mL (≈ 1.61 to 103 µM)
Helicobacter pylori [14]
  MIC90: 0.5 to 32 µg/mL (≈ 1.61 to 103 µM)

## Cc1ncc([N+](=O)[O-])n1CCNCc1no[n+]([O-])c1C
Helicobacter pylori [13]
  MIC90: 0.5 to 32 µg/mL (≈ 1.77 to 113 µM)
Helicobacter pylori [14]
  MIC90: 0.5 to 32 µg/mL (≈ 1.77 to 113 µM)

## Cc1ncc([N+](=O)[O-])n1CCNCc1nonc1C#N
Helicobacter pylori [13]
  MIC90: 0.5 to 32 µg/mL (≈ 1.8 to 115 µM)
Helicobacter pylori [14]
  MIC90: 0.5 to 32 µg/mL (≈ 1.8 to 115 µM)

## Cc1ncc([N+](=O)[O-])n1CCNCc1nonc1C(N)=O
Helicobacter pylori [13]
  MIC90: 0.5 to 32 µg/mL (≈ 1.69 to 108 µM)
Helicobacter pylori [14]
  MIC90: 0.5 to 32 µg/mL (≈ 1.69 to 108 µM)

## Cc1nonc1CNCCn1c([N+](=O)[O-])cnc1C
Helicobacter pylori [13]
  MIC90: 0.5 to 32 µg/mL (≈ 1.88 to 120 µM)
Helicobacter pylori [14]
  MIC90: 0.5 to 32 µg/mL (≈ 1.88 to 120 µM)

## NC[C@H]1O[C@H](O[C@H]2[C@H](O)[C@@H](O[C@H]3O[C@H](CO)[C@@H](O)[C@H](N)[C@H]3O)[C@H](N)C[C@@H]2N)[C@H](N)[C@@H](O)[C@@H]1O [BEKANAMYCIN]
Staphylococcus aureus [3]
  MIC: 1.56 to 3.12 µg/mL (≈ 3.23 to 6.45 µM)
Bacillus subtilis
  MIC: 1.56 to 3.12 µg/mL (≈ 3.23 to 6.45 µM)
Escherichia coli [4]
  MIC: 1.56 to 3.12 µg/mL (≈ 3.23 to 6.45 µM)
Pseudomonas aeruginosa [5]
  MIC: 1.56 to 3.12 µg/mL (≈ 3.23 to 6.45 µM)

## O=C(O)c1cn(C2CC2)c2cc(N3CCNCC3)c(F)cc2c1=O [CIPROFLOXACIN]
Streptococcus pyogenes
  MIC: 189 µM (≈ 62.6 µg/mL)
Escherichia coli [1]
  ED50: 4.53 mg/kg

## NC1CCN(c2c(F)cc3c(=O)c(C(=O)O)cn(C4CC4)c3c2Cl)C1 (stereo not drawn) [CLINAFLOXACIN]
Escherichia coli [6]
  MIC: 5 to 88 µM (≈ 1.83 to 32.2 µg/mL)
Pseudomonas aeruginosa [7]
  MIC: 5 to 88 µM (≈ 1.83 to 32.2 µg/mL)
Enterococcus faecalis
  MIC: 5 to 88 µM (≈ 1.83 to 32.2 µg/mL)
Staphylococcus aureus [8]
  MIC: 5 to 88 µM (≈ 1.83 to 32.2 µg/mL)
Staphylococcus aureus [9]
  MIC: 5 to 88 µM (≈ 1.83 to 32.2 µg/mL)
Staphylococcus aureus [10]
  MIC: 5 to 88 µM (≈ 1.83 to 32.2 µg/mL)
Pseudomonas aeruginosa [11]
  MIC: 5 to 88 µM (≈ 1.83 to 32.2 µg/mL)
Acinetobacter baumannii
  MIC: 5 to 88 µM (≈ 1.83 to 32.2 µg/mL)
Escherichia coli [12]
  MIC: 5 to 88 µM (≈ 1.83 to 32.2 µg/mL)
Klebsiella pneumoniae
  MIC: 5 to 88 µM (≈ 1.83 to 32.2 µg/mL)

## CCn1cc(C(=O)O)c(=O)c2cc(F)c(N3CCNCC3)nc21 [ENOXACIN]
Escherichia coli [1]
  ED50: 4.22 mg/kg
